Measured values: patent publication US8859574B2 (IRM LLC, priority 2008, dated 2014)

target: T1, IGF-1R Ba/F3 (Homo sapiens, UniProt P08069); assay: Ba/F3 Cell Viability Inhibition Assay (IGF-1R Ba/F3); format: cell-based, murine; settings: Tel-TK transformed Ba/F3 cells, 48 hours, Britelite luminescence
T1 construct: fused on or other part: TEL- (or BCR-) IGF-1R in Ba/F3: the kinase part holds the site
Summary of the method: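 IL-3-independent murine Ba/F3 cells transformed with a TEL/BCR-fused IGF-1R kinase were seeded at 3750 cells/well and exposed to serially diluted compound for 48 h at 37 °C. Viability was read by Britelite luminescence. IC50 is the concentration giving 50% of DMSO-control viability, from a logistic fit.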

T1 sequence (P08069 999-1274 limits assumed): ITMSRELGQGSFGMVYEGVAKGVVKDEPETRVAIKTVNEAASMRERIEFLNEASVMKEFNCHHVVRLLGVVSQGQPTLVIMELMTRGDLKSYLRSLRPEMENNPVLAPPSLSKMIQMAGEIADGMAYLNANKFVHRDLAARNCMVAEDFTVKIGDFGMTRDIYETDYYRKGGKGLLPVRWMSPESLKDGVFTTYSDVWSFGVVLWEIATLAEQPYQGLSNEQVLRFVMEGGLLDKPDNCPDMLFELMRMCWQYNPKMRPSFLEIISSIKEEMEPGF

Question: How did the IC50 turn out when Cc1cc(Nc2nc(Nc3cc(C)c(C4CCN(C(=O)c5ocnc5C)CC4)cc3F)ncc2Cl)n[nH]1 [Compound 136, (4-(4-(5-chloro-4-(5-methyl-1H-pyrazol-3-ylamino)pyrimidin-2-ylamino)-5-fluoro-2-methylphenyl)piperidin-1-yl)(4-methyloxazol-5-yl)methanone] was run?
Answer: The IC50 was 35 nM.

Question: With Cc1cc(Nc2nc(Nc3cc(C)c(C4CCN(C(=O)c5c(C)noc5C)CC4)cc3F)ncc2Cl)n[nH]1 [Compound 137, (4-(4-(5-chloro-4-(5-methyl-1H-pyrazol-3-ylamino)pyrimidin-2-ylamino)-5-fluoro-2-methylphenyl)piperidin-dimethylisoxazol-4-yl)methanone] as the compound, how does the IC50 read?
Answer: Its IC50 is 18 nM.

Question: For Cc1cc(Nc2nc(Nc3cc(C)c(C4CCN(C(=O)[C@]5(C)CCCN5)CC4)cc3F)ncc2Cl)n[nH]1 [Compound 138, (S)-(4-(4-(5-chloro-4-(5-methyl-1H-pyrazol-3-ylamino)pyrimidin-2-ylamino)-5-fluoro-2-methylphenyl)piperidin-1-yl)(2-methylpyrrolidin-2-yl)methanone], which IC50 is on record?
Answer: The IC50 was 91 nM.

Question: How did the IC50 turn out when Cc1cc(Nc2nc(Nc3cc(C)c(C4CCN(C(=O)n5cnnn5)CC4)cc3F)ncc2Cl)n[nH]1 [Compound 140, (4-(4-(5-chloro-4-(5-methyl-1H-pyrazol-3-ylamino)pyrimidin-2-ylamino)-5-fluoro-2-methylphenyl)piperidin-1-yl)(1H-tetrazol-1-yl)methanone] was run?
Answer: The IC50 was 139 nM.

Question: With Cc1cc(Nc2nc(Nc3cc(C)c(C4CCN(C(=O)c5nc(C)oc5C(F)(F)F)CC4)cc3F)ncc2Cl)n[nH]1 [Compound 141, (4-(4-(5-chloro-4-(5-methyl-1H-pyrazol-3-ylamino)pyrimidin-2-ylamino)-5-fluoro-2-methylphenyl)piperidin-1-yl)(2-methyl-5-(trifluoromethyl)oxazol-4-yl)methanone] as the compound, how does the IC50 read?
Answer: The IC50 was 69 nM.

Question: Which IC50 does the source give for Cc1cc(Nc2nc(Nc3cc(C)c(C4CCN(C(=O)C5CCCC(=O)N5)CC4)cc3F)ncc2Cl)n[nH]1 (centres unmarked) [Compound 142, 6-(4-(4-(5-chloro-4-(5-methyl-1H-pyrazol-3-ylamino)pyrimidin-2-ylamino)-5-fluoro-2-methylphenyl)piperidine-1-carbonyl)piperidin-2-one] here?
Answer: Its IC50 is 282 nM.

Question: Which IC50 does the source give for Cc1cc(Nc2nc(Nc3cc(C)c(C4CCN(C(=O)[C@@H]5COCCN5)CC4)cc3F)ncc2Cl)n[nH]1 [Compound 143, (S)-(4-(4-(5-chloro-4-(5-methyl-1H-pyrazol-3-ylamino)pyrimidin-2-ylamino)-5-fluoro-2-methylphenyl)piperidin-1-yl)(morpholin-3-yl)methanone] here?
Answer: The IC50 was 71 nM.

Question: Which IC50 does the source give for Cc1cc(Nc2nc(Nc3cc(Cl)c(C4CCN(C5CCS(=O)(=O)C5)CC4)cc3C)ncc2Cl)n[nH]1 (centres unmarked) [Compound 144, 5-chloro-N^2-(2-methyl-5-chloro-4-(1-(tetrahydro-1,1-dioxido-3-thienyl)piperidin-4-yl)phenyl)-N^4-(5-methyl-1H-pyrazol-3-yl)pyrimidine-2,4-diamine] here?
Answer: The IC50 was 7 nM.

Question: For Cc1cc(Nc2nc(Nc3cc(C)c(C4CCN(C5CCS(=O)(=O)C5)CC4)cc3F)ncc2Cl)n[nH]1 (centres unmarked) [Compound 145, 5-chloro-N^2-(2-fluoro-5-methyl-4-(1-(tetrahydro-1,1-dioxido-3-thienyl)piperidin-4-yl)phenyl)-N^4-(5-methyl-1H-pyrazol-3-yl)pyrimidine-2,4-diamine], which IC50 is on record?
Answer: The IC50 was 18 nM.

Question: With Cc1cc(Nc2nc(Nc3cc(C)c(C4CCN(C5CCS(=O)(=O)CC5)CC4)cc3C)ncc2Cl)n[nH]1 [Compound 146] as the compound, how does the IC50 read?
Answer: The IC50 was 258 nM.

Question: With Cc1cc(Nc2nc(Nc3cc(C)c(C4CCN(C5CS(=O)(=O)C5)CC4)cc3F)ncc2Cl)n[nH]1 [Compound 148, 5-chloro-N^2-(2-fluoro-5-methyl-4-(1-(1,1-dioxido-3-thietanyl)piperidin-4-yl)phenyl)-N^4-(5-methyl-1H-pyrazol-3-yl)pyrimidine-2,4-diamine] as the compound, how does the IC50 read?
Answer: The IC50 was 18 nM.
